As a reminder, the IC50 is the concentration needed to halve the response being measured.

Molecules are shown by their SMILES. Like-named read-outs stand apart in the source and are kept apart here. Starred links: 1 amine or outer side, 2 acyl side, 3 side chain; linkers in the order of their positions; H or OH if unused. Positions of bridges follow the written chain, without caps; N, C: chain ends. Non-standard residues stand in square brackets, D forms with d. Residues, ends and D or L forms follow the SMILES beside them. Groups on a side chain read outwards from the residue. *: point of attachment. Trp(1-Me) = Cn1cc(C[C@H](N)C(=O)O)c2ccccc21; C18 diacid = O=C(O)CCCCCCCCCCCCCCCCC(=O)*; C16 diacid = O=C(O)CCCCCCCCCCCCCCC(=O)*; γGlu = O=C(O)[C@H](CCC(=O)[*:2])N[*:1]; AEEA = NCCOCCOCC(=O)O; Aoc = NCCCCCCCC(=O)O; Sar = CNCC(=O)O

The results in this text go back to patent publication US11965039B2, “Compstatin analogues and their medical uses” (priority 2018, dated 2024).

In series [1] the test system is classical complement pathway. In words: In vitro haemolysis assay (inhibition of classical complement pathway). Particulars: human serum, sensitized sheep red blood cells. The format is cell-based, human. The protocol: The in vitro effect of the compounds of the present invention was assessed by measuring their inhibitory effect of the classical complement pathway in a haemolysis assay. Briefly, compounds of the present invention and reference compounds were dissolved in DMSO and diluted in Tris/Casein Assay Buffer (10 mM Tris, 145 mM NaCl, 0.5 mM MgCl2, 0.15 mM CaCl2), and 0.1% W/V Casein, adjusted to pH 7.4) as 9-point serial dilutions in a 96 well plate. Sensitized sheep red blood cells (RBC) coated with rabbit anti-sheep erythrocyte antiserum (Complement Technology, Inc., TX, USA) were washed in Tris/Casein Assay Buffer. […] from each well of diluted compound was added to a 96-well plate containing 50 μL diluted human serum (Complement Technology, Inc., TX, USA) and incubated for 15 minutes at room temperature. The serum dilution factor was optimized for every serum batch to obtain 70-90% of maximal haemolysis using the protocol. Then 50 μL sensitized sheep red blood cells were added to all wells (10^7 per well). After 30 minutes of incubation at 37 QC with gentle agitation, the reaction was stopped by addition of 50 μL Tris STOP Buffer per well (10 mM EDTA, 10 mM Tris, 145 mM NaCl adjusted to pH 7.4). The RBCs were then removed by centrifugation and the resulting supernatant measured for hemolysis by absorbance at 405 nm. The response was normalized relative to a positive and negative control (vehicle) to calculate the IC50 from the concentration response curve using the 4-parameter logistic (4PL) nonlinear model for curve fitting.

The nature of series [2]: Solubility test at 10 mg/mL (visual inspection and light scattering). The format is physicochemical. Particulars: for Solubility, Condition 1: Acetate pH 4; for Solubility, Condition 2: Acetate pH 5; for Solubility, Condition 3: Phosphate pH 6; for Solubility, Condition 4: Phosphate pH 7; for Solubility, Condition 5: Phosphate pH 7.5. As for the experimental part: The solubility of compounds was assessed by measuring light scattering over a pH interval from pH 4 to pH 7.5.
Compounds were dissolved in a stock solution of 20 mg/mL in H2O at pH 2.5 or pH 10. These stock solutions were diluted 1:1 with 200 mM buffered solution to reach a final solution of 10 mg/mL compound in 100 mM buffer. The 5 investigated conditions were (1) acetate pH 4.0, (2) acetate pH 5.0, (3) phosphate pH 6.0, (4) phosphate pH 7 and (5) phosphate pH 7.5.
Visual inspection included manually checking the 96 well plate for wells that are clear or non-clear. In addition to this a picture of the 96 well plate is taken.
Absorbance was measured at four wavelengths: 280 nm, 325 nm, 340 nm and 360 nm in an UV transparent 96 well microplate in a SpectraMax 190 microplate reader (Molecular Devices).
The criteria for this was a combination of visual inspection and light scattering not exceeding 0.1 AU, where values below 0.1 AU are good in visually clear samples.

[3] abbreviates: Table 3, given as upper bounds, read-out: IC50, inhibition of hemolysis.

On to `CC[C@H](C)[C@@H]1NC(=O)[C@@H](NC(=O)CN(C)C(C)=O)CSSC[C@@H](C(=O)N[C@H](C(N)=O)[C@@H](C)O)NC(=O)[C@H](CCCNC(=N)N)NC(=O)[C@H](Cc2c[nH]cn2)NC(=O)[C@H](CCC(=O)O)NC(=O)CNC(=O)[C@H](Cc2c[nH]c3ccccc23)NC(=O)[C@H](CC(=O)O)NC(=O)[C@H](CCC(N)=O)NC(=O)[C@H](Cc2c[nH]c3ccccc23)NC1=O` [Compound 11] (Ac-[Sar]CIWQDWGEHRCT-NH2; disulfide 2-12), for which the IC50 in series [1] (setting [3]) was less than 100 nM.
Same read-out and setting: as for `CC[C@H](C)[C@@H]1NC(=O)[C@@H](NC(=O)CN(C)C(=O)[C@H](CCC(=O)O)NC(=O)[C@H](CO)NC(C)=O)CSSC[C@@H](C(=O)N[C@H](C(=O)N[C@@H](CCC(=O)O)C(=O)N[C@@H](C)C(N)=O)[C@@H](C)O)NC(=O)[C@H](CCCNC(=N)N)NC(=O)[C@H](Cc2c[nH]cn2)NC(=O)[C@H](CCC(=O)O)NC(=O)CN(C)C(=O)[C@H](Cc2c[nH]c3ccccc23)NC(=O)[C@H](CCC(=O)O)NC(=O)[C@H](CCC(N)=O)NC(=O)[C@H](Cc2cn(C)c3ccccc23)NC1=O` [Compound 89, Ac-SE[Sar]C(1)I[1-Me-Trp]QEW[Sar]EHRC(1)TEA-NH2] (Ac-SE[Sar]CI[Trp(1-Me)]QEW[Sar]EHRCTEA-NH2; disulfide 4-14), the figure is less than 100 nM.
On to `CC[C@H](C)[C@H](NC(C)=O)C(=O)N[C@H]1CSSC[C@@H](C(=O)N[C@@H](CO)C(N)=O)NC(=O)[C@H](CCCNC(=N)N)NC(=O)[C@H](Cc2c[nH]cn2)NC(=O)[C@H](CCC(=O)O)NC(=O)CNC(=O)[C@H](Cc2c[nH]c3ccccc23)NC(=O)[C@H](CC(=O)O)NC(=O)[C@H](CCC(N)=O)NC(=O)[C@H](Cc2c[nH]c3ccccc23)NC(=O)[C@H]([C@@H](C)CC)NC1=O` [Compound 21] (Ac-ICIWQDWGEHRCS-NH2; disulfide 2-12), for which the IC50 is less than 100 nM in series [1] (setting [3]) and 77 nM in series [1] (Table 4, valine 3 vs isoleucine 3 pairs, read-out: CP hemolysis IC50).
For `CC[C@H](C)[C@H](NC(C)=O)C(=O)N[C@H]1CSSC[C@@H](C(=O)N[C@H](C(=O)N[C@@H](CCC(=O)O)C(=O)NCC(=O)N[C@@H](CCC(=O)O)C(=O)N[C@@H](CCCCNC(=O)COCCOCCNC(=O)COCCOCCNC(=O)CC[C@H](NC(=O)CCCCCCCCCCCCCCC(=O)O)C(=O)O)C(N)=O)[C@@H](C)O)NC(=O)[C@H](CCCNC(=N)N)NC(=O)[C@H](Cc2c[nH]cn2)NC(=O)[C@H](CCC(=O)O)NC(=O)CNC(=O)[C@H](Cc2c[nH]c3ccccc23)NC(=O)[C@H](CC(=O)O)NC(=O)[C@H](CCC(N)=O)NC(=O)[C@H](Cc2c[nH]c3ccccc23)NC(=O)[C@H]([C@@H](C)CC)NC1=O` [Compound 94] (Ac-ICIWQDWGEHRCTEGEK([AEEA-AEEA-γGlu-C16 diacid])-NH2; disulfide 2-12), in series [1] (setting [3]), the IC50 is less than 500 nM.
Still for that read-out and setting: then `CC[C@H](C)[C@@H]1NC(=O)[C@@H](NC(=O)[C@H](Cc2ccccc2)NC(=O)[C@H](CCC(=O)O)NC(=O)[C@H](CO)NC(C)=O)CSSC[C@@H](C(=O)N[C@H](C(=O)N[C@@H](CCC(=O)O)C(=O)NCC(=O)N[C@@H](CCC(=O)O)C(=O)NCCCCCCCC(=O)N[C@@H](CCCCNC(=O)CC[C@H](NC(=O)CNC(=O)CC[C@H](NC(=O)CCCCCCCCCCCCCCCCC(=O)O)C(=O)O)C(=O)O)C(N)=O)[C@@H](C)O)NC(=O)[C@H](CCCNC(=N)N)NC(=O)[C@H](Cc2c[nH]cn2)NC(=O)[C@H](CCC(=O)O)NC(=O)CNC(=O)[C@H](Cc2c[nH]c3ccccc23)NC(=O)[C@H](CC(=O)O)NC(=O)[C@H](CCC(N)=O)NC(=O)[C@H](Cc2cn(C)c3ccccc23)NC1=O` [Compound 136] (Ac-SEFCI[Trp(1-Me)]QDWGEHRCTEGE[Aoc]K([γGlu-Gly-γGlu-C18 diacid])-NH2; disulfide 4-14), with less than 100 nM.
As for `CC[C@H](C)[C@@H]1NC(=O)[C@@H](NC(=O)[C@H](Cc2ccc(O)cc2)NC(=O)[C@H](CCC(=O)O)NC(=O)[C@H](CO)NC(C)=O)CSSC[C@@H](C(=O)N(C)CC(=O)N[C@@H](CCC(=O)O)C(=O)NCC(=O)N[C@@H](CCC(=O)O)C(=O)N[C@@H](CCCCNC(=O)CC[C@H](NC(=O)[C@H](CCCCN)NC(=O)CC[C@H](NC(=O)CCCCCCCCCCCCCCCCC(=O)O)C(=O)O)C(=O)O)C(N)=O)NC(=O)[C@H](CCCNC(=N)N)NC(=O)[C@H](Cc2c[nH]cn2)NC(=O)[C@H](CCC(=O)O)NC(=O)CNC(=O)[C@H](Cc2c[nH]c3ccccc23)NC(=O)[C@H](CC(=O)O)NC(=O)[C@H](CCC(N)=O)NC(=O)[C@H](Cc2cn(C)c3ccccc23)NC1=O` [Compound 116] (Ac-SEYCI[Trp(1-Me)]QDWGEHRC[Sar]EGEK([γGlu-Lys-γGlu-C18 diacid])-NH2; disulfide 4-14), in series [2], the “Solubility, Condition 1” value is reported as “− (“−” denotes lack of solubility at the given condition, as UV absorbance at 340 nm exceeds 0.1 AU and/or it is visibly turbid or contains particles)”; the “Solubility, Condition 2” value is “− (“−” denotes lack of solubility at the given condition, as UV absorbance at 340 nm exceeds 0.1 AU and/or it is visibly turbid or contains particles)”; the “Solubility, Condition 3” value is “+ (“+” denotes solubility at the given condition, as determined by UV absorbance being less than 0.1 AU at 340 nm and the sample being clear when manually inspected)”; the “Solubility, Condition 4” value is “+ (“+” denotes solubility at the given condition, as determined by UV absorbance being less than 0.1 AU at 340 nm and the sample being clear when manually inspected)”. The “Solubility, Condition 5” value in series [2] was “+ (“+” denotes solubility at the given condition, as determined by UV absorbance being less than 0.1 AU at 340 nm and the sample being clear when manually inspected)”.
For `CC[C@H](C)[C@@H]1NC(=O)[C@@H](NC(=O)[C@H](Cc2ccc(O)cc2)NC(=O)[C@H](C)NC(=O)[C@H](CO)NC(C)=O)CSSC[C@@H](C(=O)N(C)CC(=O)N[C@@H](CCC(=O)O)C(=O)N[C@@H](CCCCNC(=O)CC[C@H](NC(=O)CNC(=O)[C@H](CCCCN)NC(=O)CC[C@H](NC(=O)CCCCCCCCCCCCCCCCC(=O)O)C(=O)O)C(=O)O)C(N)=O)NC(=O)[C@H](CCCNC(=N)N)NC(=O)[C@H](Cc2c[nH]cn2)NC(=O)[C@H](CCC(=O)O)NC(=O)CNC(=O)[C@H](Cc2c[nH]c3ccccc23)NC(=O)[C@H](CC(=O)O)NC(=O)[C@H](CCC(N)=O)NC(=O)[C@H](Cc2cn(C)c3ccccc23)NC1=O` [Compound 105] (Ac-SAYCI[Trp(1-Me)]QDWGEHRC[Sar]EK([γGlu-Gly-Lys-γGlu-C18 diacid])-NH2; disulfide 4-14), in series [2], the “Solubility, Condition 1” value is listed as “− (“−” denotes lack of solubility at the given condition, as UV absorbance at 340 nm exceeds 0.1 AU and/or it is visibly turbid or contains particles)”; the “Solubility, Condition 2” value was “− (“−” denotes lack of solubility at the given condition, as UV absorbance at 340 nm exceeds 0.1 AU and/or it is visibly turbid or contains particles)”; the “Solubility, Condition 3” value is “+ (“+” denotes solubility at the given condition, as determined by UV absorbance being less than 0.1 AU at 340 nm and the sample being clear when manually inspected)”; the “Solubility, Condition 4” value was “+ (“+” denotes solubility at the given condition, as determined by UV absorbance being less than 0.1 AU at 340 nm and the sample being clear when manually inspected)”. Besides, the “Solubility, Condition 5” value in series [2] is “+ (“+” denotes solubility at the given condition, as determined by UV absorbance being less than 0.1 AU at 340 nm and the sample being clear when manually inspected)”.
